Measurements from patent publication US9593305B2, “Differentiation of pluripotent stem cells” (Janssen Biotech, Inc., priority 2008, dated 2017).

Key:
[1] = test system: H1 human embryonic stem cells; assay: Analog screening with GDF-8 and growth factor/agonist pool (Example 8, Tables 7 and 8); assay type: cell-based
Method: Briefly, clusters of H1 human embryonic stem cells were grown on reduced growth factor […]™ (Invitrogen; Cat #356231)-coated tissue culture plastic. Cells were passaged using collagenase (Invitrogen; Cat #17104-019) treatment and gentle scraping, washed to remove residual enzyme, and plated with even dispersal at a ratio of 1:1 (surface area) on reduced growth factor […]™-coated 96-well black plates (Packard ViewPlates; PerkinElmer; Cat #6005182) using volumes of 100 μl/well. Cells were allowed to attach as clusters and then recover log phase growth over a 1 to 3 day period, feeding daily with MEF conditioned medium supplemented with 8 ng/ml bFGF (R&D Systems; Cat #233-FB). Plates were maintained at 37° C., 5% CO2 in a humidified box throughout the duration of assay. Growth factors purchased from R&D Systems were EGF (Cat #236-EG), FGF4 (Cat #235-F4), PDGF-A (Cat #221-AA), PDGF-D (Cat #1159-SB), PDGF-A/B (Cat #222-AB). […] Screening was conducted using a library of compounds that were made available as 5 mM stocks in 96-well plate format, solubilized in 100% DMSO (Sigma; Cat #D2650) and stored at −80° C. The compounds were further diluted to an intermediate concentration of 0.2 mM in 50 mM HEPES (Invitrogen; Cat #15630-080), 20% DMSO and stored at 4° C. Test conditions were performed in single wells, feeding on alternate days over a four-day assay period. Primary screening assays were initiated by aspirating culture medium from each well followed by three washes in PBS (Invitrogen; Cat #14190) to remove residual growth factors and serum. On the first day of assay, test volumes of 200 μl per well were added back containing DMEM:F12 base medium (Invitrogen; Cat #11330-032) supplemented with 0.5% FCS (HyClone; […] Cat #1324-WN) plus 2.5 μM compound. All remaining growth factors were tested at a final assay concentration of 50 ng/ml (EGF, FGF4, PDGF-A, PDGF-A/B, VEGF) with the exception of GDF-8 tested at 25 ng/ml. […] Cat #120-14). […] All remaining growth factors were tested at a final assay concentration of 50 ng/ml (EGF, FGF4, PDGF-A, PDGF-A/B, VEGF) with the exception of GDF-8 tested at 25 ng/ml. […] Cat #120-14). Negative control samples contained DMEM:F12 base medium supplemented with 2% FCS. […] At the conclusion of four-days of culture, assay plates were washed twice with PBS (Invitrogen; Cat #14190), fixed with 4% paraformaldehyde (Alexis Biochemical; Cat #ALX-350-011) at room temperature for 20 minutes, then washed three times with PBS and permeabilized with 0.5% Triton X-100 (Sigma; Cat #T8760-2) for 20 minutes at room temperature. Cells were washed again three times with PBS and blocked with 4% chicken serum (Invitrogen; Cat #16110082) in PBS for 30 minutes at room temperature. Primary antibody (goat anti-human SOX17; R&D Systems; Cat #AF1924) was diluted 1:100 in 4% chicken serum and added to each well for one hour at room temperature. Alexa Fluor 488 conjugated secondary antibody (chicken anti-goat IgG; Molecular Probes; Cat #AZ1467) was diluted 1:200 in PBS and added to each sample well after washing three times with PBS. To counterstain nuclei, 4 μg/ml Hoechst 33342 (Invitrogen; Cat #H3570) was added for ten minutes at room temperature. Plates were washed once with PBS and left in 100 μl/well PBS for imaging. Imaging was performed using an IN Cell Analyzer 1000 (GE Healthcare) utilizing the 51008bs dichroic for cells stained with Hoechst 33342 and Alexa Fluor 488. Exposure times were optimized from positive control wells and from untreated negative control wells stained with secondary antibody alone. Images from 15 fields per well were acquired to compensate for any cell loss during the bioassay and subsequent staining procedures. […] Segmentation for the nuclei was determined based on gray-scale levels (baseline range 100-300) and nuclear size. Averages and standard deviations were calculated for each replicate data set. […]

[2] = test system: H1 human embryonic stem cells; assay: Analogue screening in combination with only GDF-8, SOX17 (Example 21, Tables 18 and 19); assay type: cell-based; parameters: Sox17 Expression: % of positive control / Cell Number: % of positive control: tested at 2.5 µM; conditions: compound in combination with GDF8; for Cell Number: Average Total Cell Number / Sox17 Expression: Average Total Intensity: four assay plates; for Cell Number: % of positive control / Sox17 Expression: % of positive control: relative to Activin A/Wnt3a of the same plate
Method: Briefly, clusters of H1 human embryonic stem cells were grown on reduced growth factor Matrigel™ (Invitrogen; Cat #356231)-coated tissue culture plastic. Cells were passaged using collagenase (Invitrogen; Cat #17104-019) treatment and gentle scraping, washed to remove residual enzyme, and plated with even dispersal at a ratio of 1:1 (surface area) on reduced growth factor […]™ (BD Biosciences; Cat #356231)-coated 96-well black plates (Packard ViewPlates; PerkinElmer; Cat #6005182) using volumes of 100 μl/well. Cells were allowed to attach and then recover log phase growth over a 1 to 3 day time period, feeding daily with MEF conditioned medium supplemented with 8 ng/ml bFGF (R&D Systems; Cat #233-FB). Plates were maintained at 37° C., 5% CO2 in a humidified box throughout the duration of assay.
Screening was conducted using a library of the analogue compounds. Compounds from this library were made available as 5 mM stocks in 96-well plate format, solubilized in 100% DMSO (Sigma; Cat #D2650) and stored at −80° C. The library compounds were further diluted to an intermediate concentration of 0.2 mM in 50 mM HEPES (Invitrogen; Cat #15630-080), 20% DMSO and stored at 4° C. Test conditions were performed in triplicate, feeding on alternating days over a four-day assay period. Assays were initiated by aspirating culture medium from each well followed by three washes in PBS (Invitrogen; Cat #14190) to remove residual growth factors. On the first day of assay, test volumes of 200 μl per well were added to each well using DMEM:F12 base medium (Invitrogen; Cat #11330-032) supplemented with 0.5% FCS (HyClone; Cat #SH30070.03) and 200 ng/ml GDF-8 (R&D Systems, Cat #788-G8) plus 2.5 μM compound. On the third day of assay, test volumes of 100 μl per well were added to each well using DMEM:F12 base medium supplemented with 2% FCS plus 200 ng/ml GDF-8 (R&D Systems, Cat #788-G8). Positive control samples contained the same base medium supplemented with FCS and 1000 ng/ml recombinant human activin A (PeproTech; Cat #120-14) throughout the four-day assay along with Wnt3a (20 ng/ml) on days 1 and 2. Negative control samples contained DMEM:F12 base medium supplemented with FCS, adding Wnt3a on days 1 and 2 but omitting treatment with activin A.
At the conclusion of four-days of culture, assay plates were washed twice with PBS (Invitrogen; Cat #14190), fixed with 4% paraformaldehyde (Alexis Biochemical; Cat #ALX-350-011) at room temperature for 20 minutes, then washed three times with PBS and permeabilized with 0.5% Triton X-100 (Sigma; Cat #T8760-2) for 20 minutes at room temperature. Cells were washed again three times with PBS and blocked with 4% chicken serum (Invitrogen; Cat #16110082) in PBS for 30 minutes at room temperature. Primary antibody (goat anti-human SOX17; R&D Systems; Cat #AF1924) was diluted 1:100 in 4% chicken serum and added to each well for one hour at room temperature. Alexa Fluor 488 conjugated secondary antibody (chicken anti-goat IgG; Molecular Probes; Cat #AZ1467) was diluted 1:200 in PBS and added to each sample well after washing three times with PBS. To counterstain nuclei, 4 μg/ml Hoechst 33342 (Invitrogen; Cat #H3570) was added for ten minutes at room temperature. Plates were washed once with PBS and left in 100 μl/well PBS for imaging.
Imaging was performed using an IN Cell Analyzer 1000 (GE Healthcare) utilizing the 51008bs dichroic for cells stained with Hoechst 33342 and Alexa Fluor 488. Exposure times were optimized from positive control wells and from untreated negative control wells stained with secondary antibody alone. Images from 15 fields per well were acquired to compensate for any cell loss during the bioassay and subsequent staining procedures. Measurements for total cell number and total SOX17 intensity were obtained from each well using IN Cell Developer Toolbox 1.7 (GE Healthcare) software. […]

[3] = Plate 1, compound + EGF, FGF, PDGF-A, VEGF, PDGF-D, muscimol, GDF8
[4] = Plate 1, compound + EGF, FGF, PDGF-A, VEGF, PDGF-D, muscimol, GDF8, positive control Activin A/Wnt3a
[5] = Table 8: hits with greater than 25% activity of the positive control, with GDF-8 and growth factors/agonists
[6] = Plate 2, compound + EGF, FGF, PDGF-A, VEGF, PDGF-D, muscimol, GDF8
[7] = Plate 2, compound + EGF, FGF, PDGF-A, VEGF, PDGF-D, muscimol, GDF8, positive control Activin A/Wnt3a

Compound | Cell Number, Average Total Cell Number [1, 3] | Sox17 Expression, Average Total Intensity [1, 3] | Cell Number, % of positive control [1, 4] | Sox17 Expression, % of positive control [1, 4] | Cell Number, % of positive control [1, 5] | Sox17 Expression, % of positive control [1, 5] | Sox17 Expression, Average Total Intensity [1, 5] | Cell Number: Average Total Cell Number [2] | Sox17 Expression: Average Total Intensity [2] | Cell Number: % of positive control [2] | Sox17 Expression: % of positive control [2] | Cell Number, Average Total Cell Number [1, 6] | Sox17 Expression, Average Total Intensity [1, 6] | Cell Number, % of positive control [1, 7] | Sox17 Expression, % of positive control [1, 7]
O=C1NCCc2cccc(c2)Nc2ncnc(n2)-c2cccc(c2)CCCN2CCC1CC2 [Compound 31, 1,11,13,15,23,31-Hexaazapentacyclo[23.2.2.1˜5,9˜0.1˜10,14˜0.1˜16,20˜]dotriaconta-5(32), 6,8,10(31), 11,13,16(30), 17,19-nonaen-24-one] | 6957 | 6.59E+07 | 51.9 % of positive control | 26.3 % of positive control | 51.9 % of positive control | 26.3 % of positive control | 6.59E+07 | 3619 | 1.36E+07 | 24.1% | 3.9% |  |  |  | 
CN1CCCC(=O)NCCc2cccc(c2)Nc2ncnc(n2)-c2cccc(c2)CCC1 [Compound 33, 20-Methyl-3,5,7,15,20,30-hexaazatetracyclo[22.3.1.1˜2,6˜0.1˜8,12˜]triaconta-1(28), 2(30), 3,5,8(29), 9,11,24,26-nonaen-16-one] |  |  |  |  | 47.4 % of positive control | 28.3 % of positive control | 8.10E+07 | 2362 | 6.60E+06 | 15.4% | 2.0% | 7485 | 8.10E+07 | 47.4 % of positive control | 28.3 % of positive control
CCN1CCCc2cccc(c2)-c2ncnc(n2)Nc2ccccc2CNC(=O)C1 [Compound 32, 15-Ethyl-13,14,15,16,18,19-hexahydro-1H-6,2-(azeno)-7,11-(metheno)-1,3,5,15,18-benzopentaazacyclohenicosin-17(12H)-one] | 8066 | 9.29E+07 | 60.2 % of positive control | 37.1 % of positive control | 60.2 % of positive control | 37.1 % of positive control | 9.29E+07 | 4338 | 3.63E+07 | 28.9% | 10.5% |  |  |  | 
O=C1CCN2CCN(CC2)Cc2cc(Cl)cc(c2)Nc2ncnc(n2)-c2ccc(F)c(c2)CCCN1 [Compound 24, 5-Chloro-17-fluoro-1,8,10,12,22,26,32-heptaazapentacyclo[24.2.2.1˜3,7˜0.1˜9,13˜0.1˜14,18˜]tritriaconta-3(33), 4,6,9(32), 10,12,14(31), 15,17-nonaen-23-one] | 12714 | 2.46E+08 | 94.9 % of positive control | 98.2 % of positive control | 94.9 % of positive control | 98.2 % of positive control | 2.46E+08 | 5012 | 2.64E+07 | 33.4% | 7.7% |  |  |  | 
